Experimental data from ChEMBL document CHEMBL5316326, “Discovery of a Novel Covalent EZH2 Inhibitor Based on Tazemetostat Scaffold for the Treatment of Ovarian Cancer” (J Med Chem, 2023).
Active and inactive are the calls of the source. The rule behind the calls is not given here.

Tests used:
[1] = system: Histone-lysine N-methyltransferase EZH2 (Homo sapiens), Q15910 [Y641N]; assay: Inhibition of EZH2 […] mutant (unknown origin) at 1 nM by AlphaLlSA assay
[2] = molecular target: Protein arginine N-methyltransferase 1 (Homo sapiens) (UniProt Q99873); assay: Inhibition of PRMT1 (unknown origin) at 1 to 10 uM by AlphaLlSA assay; conditions: dose 1-10 µM
[3] = molecular target: Histone-lysine N-methyltransferase EHMT2 (Homo sapiens) (UniProt Q96KQ7); assay: Inhibition of G9a (unknown origin) at 1 to 10 uM by AlphaLlSA assay; conditions: dose 1-10 µM
[4] = molecular target: Histone-lysine N-methyltransferase SUV39H1 (Homo sapiens) (UniProt O43463); assay: Inhibition of SUV39H1 (unknown origin) at 1 to 10 uM by AlphaLlSA assay; conditions: dose 1-10 µM
[5] = molecular target: N-lysine methyltransferase KMT5A (Homo sapiens) (UniProt Q9NQR1); assay: Inhibition of SETD8 (unknown origin) at 1 to 10 uM by AlphaLlSA assay; conditions: dose 1-10 µM
[6] = molecular target: N-lysine methyltransferase SMYD2 (Homo sapiens) (UniProt Q9NRG4); assay: Inhibition of SMYD2 (unknown origin) at 1 to 10 uM by AlphaLlSA assay; conditions: dose 1-10 µM
ES-2 = assay: Antiproliferative activity against human ES2 cells assessed as inhibition of cell proliferation incubated for 72 hrs by MTT assay; assay type: functional, cell-based; conditions: ES-2, 72 h
SK-OV-3 = assay: Antiproliferative activity against human SK-OV-3 cells assessed as inhibition of cell proliferation incubated for 72 hrs by MTT assay; assay type: functional, cell-based; conditions: SK-OV-3, 72 h
HEY = assay: Antiproliferative activity against human HEY cells assessed as inhibition of cell proliferation incubated for 72 hrs by MTT assay; assay type: functional, cell-based
NCI-H1703 = assay: Antiproliferative activity against human NCI-H1703 cells assessed as inhibition of cell proliferation incubated for 72 hrs by MTT assay; assay type: functional, cell-based; conditions: NCI-H1703, 72 h
A549 = assay: Antiproliferative activity against human A549 cells assessed as inhibition of cell proliferation incubated for 72 hrs by MTT assay; assay type: functional, cell-based; conditions: A549, 72 h
BT-549 = assay: Antiproliferative activity against human BT-549 cells assessed as inhibition of cell proliferation incubated for 72 hrs by MTT assay; assay type: functional, cell-based; conditions: BT-549, 72 h
A2780 [7] = assay: Antiproliferative activity against human A2780 cells assessed as inhibition of cell proliferation incubated for 3 to 5 days by MTT assay; assay type: functional, cell-based; conditions: time 3-5 day, TDE = time-dependent effect
A2780 [8] = assay: Inhibition of colony formation in human A2780 cells assessed as reduction in size of colonies at 0.25 to 10 uM incubated for 14 days with medium change every 3 days by crystal violet staining method; assay type: functional, cell-based; conditions: dose 0.25-10 µM, time 14.0 day
PA-1 [9] = assay: Inhibition of colony formation in human PA-1 cells assessed as reduction in number of colonies at 0.25 to 10 uM incubated for 14 days with medium change every 3 days by crystal violet staining method; assay type: functional, cell-based; conditions: dose 0.25-10 µM, time 14.0 day
A2780 [10] = assay: Inhibition of colony formation in human A2780 cells assessed as reduction in number of colonies at 0.25 to 10 uM incubated for 14 days with medium change every 3 days by crystal violet staining method; assay type: functional, cell-based; conditions: dose 0.25-10 µM, time 14.0 day
PA-1 [11] = assay: Induction of apoptosis in human PA-1 cells assessed as necrotic cells at 10 uM incubated for 48 hrs by AnnexinV-FITC/PI staining based flow cytometry analysis (Rvb= 1.48%); assay type: functional
PA-1 [12] = assay: Induction of apoptosis in human PA-1 cells assessed as necrotic cells at 20 uM incubated for 48 hrs by AnnexinV-FITC/PI staining based flow cytometry analysis (Rvb= 1.48%); assay type: functional
PA-1 [13] = assay: Induction of apoptosis in human PA-1 cells assessed as necrotic cells at 40 uM incubated for 48 hrs by AnnexinV-FITC/PI staining based flow cytometry analysis (Rvb= 1.48%); assay type: functional
PA-1 [14] = assay: Induction of apoptosis in human PA-1 cells assessed as late apoptotic cells at 20 uM incubated for 48 hrs by AnnexinV-FITC/PI staining based flow cytometry analysis (Rvb= 3.09%); assay type: functional
PA-1 [15] = assay: Induction of apoptosis in human PA-1 cells assessed as late apoptotic cells at 40 uM incubated for 48 hrs by AnnexinV-FITC/PI staining based flow cytometry analysis (Rvb= 3.09%); assay type: functional
PA-1 [16] = assay: Induction of apoptosis in human PA-1 cells assessed as viable cells at 5 uM incubated for 48 hrs by AnnexinV-FITC/PI staining based flow cytometry analysis (Rvb= 88.53%); assay type: functional; conditions: read-out: Activity
PA-1 [17] = assay: Induction of apoptosis in human PA-1 cells assessed as viable cells at 20 uM incubated for 48 hrs by AnnexinV-FITC/PI staining based flow cytometry analysis (Rvb= 88.53%); assay type: functional; conditions: read-out: Activity
[18] = molecular target: Histone-lysine N-methyltransferase EZH2 (Homo sapiens, UniProt Q15910); assay: Inhibition of EZH2 methyltransferase activity in human PA-1 cells assessed as reduction in H3K27me3 level at 0.3 to 5 uM incubated for 3 days by Western blot analysis; assay type: cell-based; conditions: dose 0.3-5 µM, time 3.0 day
[19] = Tmax in Sprague-Dawley rat at 5 mg/kg, iv and measured upto 24 hrs by LC-MS/MS analysis; assay type: ADME, organism-based; conditions: in vivo
[20] = Half life in Sprague-Dawley rat at 5 mg/kg, iv and measured upto 24 hrs by LC-MS/MS analysis; assay type: ADME, organism-based; conditions: in vivo
[21] = Volume of distribution at steady state in Sprague-Dawley rat at 5 mg/kg, iv and measured upto 24 hrs by LC-MS/MS analysis; assay type: ADME, organism-based; conditions: in vivo
[22] = MRT(t) in Sprague-Dawley rat at 5 mg/kg, iv and measured upto 24 hrs by LC-MS/MS analysis; assay type: ADME, organism-based; conditions: in vivo
[23] = Protein binding in Sprague-Dawley rat plasma at 2 uM incubated for 5 hrs by equilibrium dialysis based LC-MS/MS analysis; assay type: ADME, cell-free; conditions: read-out: PPB (converted)
PA-1 [24] = assay: Antitumor activity against human PA-1 cells xenografted in BALB/C nude mouse assessed as tumor growth inhibition at 150 mg/kg,po BID for 21 days; assay type: functional; conditions: PA-1, 504 h, time 21 day, read-out: TGI
[25] = Toxicity in BALB/C nude mouse xenografted with human PA-1 cells assessed as body weight change at 75 to 150 mg/kg,po BID for 21 days; assay type: organism-based; conditions: in vivo, 504 h, dose 75-150 mg/kg, time 21 day
[26] = Toxicity in BALB/C nude mouse xenografted with human PA-1 cells assessed as pathological changes in serum biochemical values at 75 to 150 mg/kg,po BID for 21 days; assay type: organism-based; conditions: in vivo, 504 h, dose 75-150 mg/kg, time 21 day
[27] = Toxicity in BALB/C nude mouse xenografted with human PA-1 cells assessed as pathological changes in liver at 75 to 150 mg/kg,po BID for 21 days by H&E staining based microscopic analysis; assay type: organism-based; conditions: in vivo, 504 h, dose 75-150 mg/kg, time 21 day
[28] = Toxicity in BALB/C nude mouse xenografted with human PA-1 cells assessed as pathological changes in spleen at 75 to 150 mg/kg,po BID for 21 days by H&E staining based microscopic analysis; assay type: organism-based; conditions: in vivo, 504 h, dose 75-150 mg/kg, time 21 day
[29] = system: Histone-lysine N-methyltransferase EZH2 (Homo sapiens), Q15910 [Y641N]; conditions: dose 10.0 nM
Description: Inhibition of EZH2 Y614N mutant (unknown origin) at 10 nM by AlphaLlSA assay

Histone-lysine N-methyltransferase EZH2 (Homo sapiens), Q15910 [Y641N], sequence (Q15910 whole entry Y641N): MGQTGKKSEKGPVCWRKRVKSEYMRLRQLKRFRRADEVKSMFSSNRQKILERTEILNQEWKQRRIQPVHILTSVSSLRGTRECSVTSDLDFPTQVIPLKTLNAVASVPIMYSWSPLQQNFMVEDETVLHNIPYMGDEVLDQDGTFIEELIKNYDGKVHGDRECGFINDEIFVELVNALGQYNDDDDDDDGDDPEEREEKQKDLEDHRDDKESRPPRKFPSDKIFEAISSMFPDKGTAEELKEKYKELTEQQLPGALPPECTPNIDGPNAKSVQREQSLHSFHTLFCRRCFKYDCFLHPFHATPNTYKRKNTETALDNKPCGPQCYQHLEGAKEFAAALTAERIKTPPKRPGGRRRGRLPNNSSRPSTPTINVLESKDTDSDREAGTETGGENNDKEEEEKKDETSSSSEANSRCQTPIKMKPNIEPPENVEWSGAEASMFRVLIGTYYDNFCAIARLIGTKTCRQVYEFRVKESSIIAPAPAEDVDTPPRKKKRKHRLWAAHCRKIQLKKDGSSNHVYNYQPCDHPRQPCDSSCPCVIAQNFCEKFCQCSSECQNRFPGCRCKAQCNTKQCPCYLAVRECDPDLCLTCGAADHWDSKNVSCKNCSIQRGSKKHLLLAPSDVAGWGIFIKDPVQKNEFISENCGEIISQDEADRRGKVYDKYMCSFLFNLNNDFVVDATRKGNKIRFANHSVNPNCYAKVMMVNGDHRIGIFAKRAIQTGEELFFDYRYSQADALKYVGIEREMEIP
Protein arginine N-methyltransferase 1 (Homo sapiens), sequence (Q99873 whole entry, looked up): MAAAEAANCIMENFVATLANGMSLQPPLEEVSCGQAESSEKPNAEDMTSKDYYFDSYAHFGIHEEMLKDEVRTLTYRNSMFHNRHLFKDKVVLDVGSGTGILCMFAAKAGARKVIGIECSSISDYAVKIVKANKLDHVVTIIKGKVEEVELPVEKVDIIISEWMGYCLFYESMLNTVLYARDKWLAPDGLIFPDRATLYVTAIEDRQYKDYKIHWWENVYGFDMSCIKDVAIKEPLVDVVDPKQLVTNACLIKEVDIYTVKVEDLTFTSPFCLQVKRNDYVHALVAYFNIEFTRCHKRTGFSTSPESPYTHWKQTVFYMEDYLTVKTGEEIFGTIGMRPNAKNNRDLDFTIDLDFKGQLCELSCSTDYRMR
Histone-lysine N-methyltransferase EHMT2 (Homo sapiens), sequence (Q96KQ7 whole entry): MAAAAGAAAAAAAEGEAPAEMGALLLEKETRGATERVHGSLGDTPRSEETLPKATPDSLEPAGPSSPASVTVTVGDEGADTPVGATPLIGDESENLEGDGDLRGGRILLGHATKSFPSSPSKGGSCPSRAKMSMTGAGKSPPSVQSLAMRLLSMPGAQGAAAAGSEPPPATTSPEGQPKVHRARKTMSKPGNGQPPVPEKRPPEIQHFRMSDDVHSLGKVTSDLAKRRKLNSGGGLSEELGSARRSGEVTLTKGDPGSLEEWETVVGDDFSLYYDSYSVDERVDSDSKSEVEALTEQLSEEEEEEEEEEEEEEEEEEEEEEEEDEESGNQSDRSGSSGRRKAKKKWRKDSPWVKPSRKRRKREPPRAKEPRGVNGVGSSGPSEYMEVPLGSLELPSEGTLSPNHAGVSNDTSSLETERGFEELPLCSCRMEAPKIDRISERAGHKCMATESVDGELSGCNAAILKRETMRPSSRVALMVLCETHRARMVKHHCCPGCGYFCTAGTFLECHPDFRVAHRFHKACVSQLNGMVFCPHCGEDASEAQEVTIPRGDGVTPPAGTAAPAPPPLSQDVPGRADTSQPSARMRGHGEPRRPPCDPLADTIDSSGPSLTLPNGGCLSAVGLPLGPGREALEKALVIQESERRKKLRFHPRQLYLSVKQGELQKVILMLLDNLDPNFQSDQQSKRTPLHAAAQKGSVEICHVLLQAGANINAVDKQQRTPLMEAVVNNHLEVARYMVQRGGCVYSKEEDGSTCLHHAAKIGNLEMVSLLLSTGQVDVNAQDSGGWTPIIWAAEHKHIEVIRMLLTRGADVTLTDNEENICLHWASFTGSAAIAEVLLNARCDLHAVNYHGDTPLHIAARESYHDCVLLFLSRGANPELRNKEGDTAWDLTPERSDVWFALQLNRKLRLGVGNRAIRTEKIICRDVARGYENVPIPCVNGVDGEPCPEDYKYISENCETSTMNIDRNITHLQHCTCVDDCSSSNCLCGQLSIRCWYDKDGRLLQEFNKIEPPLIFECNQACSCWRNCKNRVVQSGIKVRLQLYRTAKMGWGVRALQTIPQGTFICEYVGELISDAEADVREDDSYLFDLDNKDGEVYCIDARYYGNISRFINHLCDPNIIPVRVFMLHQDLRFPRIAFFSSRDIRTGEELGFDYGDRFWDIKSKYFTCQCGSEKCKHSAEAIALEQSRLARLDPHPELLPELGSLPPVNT
N-lysine methyltransferase KMT5A (Homo sapiens), sequence (Q9NQR1 whole entry): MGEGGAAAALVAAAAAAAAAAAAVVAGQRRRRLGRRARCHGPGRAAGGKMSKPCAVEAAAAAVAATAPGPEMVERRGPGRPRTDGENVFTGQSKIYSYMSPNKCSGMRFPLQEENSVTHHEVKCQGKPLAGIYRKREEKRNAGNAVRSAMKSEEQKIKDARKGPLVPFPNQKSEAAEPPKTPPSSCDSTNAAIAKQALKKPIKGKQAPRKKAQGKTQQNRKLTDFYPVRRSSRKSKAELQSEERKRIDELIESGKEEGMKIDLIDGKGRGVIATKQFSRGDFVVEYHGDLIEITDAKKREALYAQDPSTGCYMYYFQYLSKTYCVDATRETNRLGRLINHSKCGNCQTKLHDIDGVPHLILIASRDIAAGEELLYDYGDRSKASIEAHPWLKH
Histone-lysine N-methyltransferase SUV39H1 (Homo sapiens), sequence (O43463 whole entry): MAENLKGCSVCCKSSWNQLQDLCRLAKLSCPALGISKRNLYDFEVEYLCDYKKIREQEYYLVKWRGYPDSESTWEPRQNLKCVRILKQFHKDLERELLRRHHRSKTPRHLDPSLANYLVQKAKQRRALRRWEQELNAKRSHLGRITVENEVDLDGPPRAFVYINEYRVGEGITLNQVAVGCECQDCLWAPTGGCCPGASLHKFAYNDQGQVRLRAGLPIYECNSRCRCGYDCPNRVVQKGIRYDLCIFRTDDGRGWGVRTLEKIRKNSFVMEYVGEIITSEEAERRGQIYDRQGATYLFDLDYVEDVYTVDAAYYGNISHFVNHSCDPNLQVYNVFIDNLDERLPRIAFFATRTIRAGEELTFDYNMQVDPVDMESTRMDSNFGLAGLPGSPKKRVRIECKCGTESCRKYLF
Histone-lysine N-methyltransferase EZH2, sequence (Q15910 whole entry, looked up): as the sequence (Q15910 whole entry Y641N) above, with N641Y counted along it
N-lysine methyltransferase SMYD2 (Homo sapiens), sequence (Q9NRG4 whole entry): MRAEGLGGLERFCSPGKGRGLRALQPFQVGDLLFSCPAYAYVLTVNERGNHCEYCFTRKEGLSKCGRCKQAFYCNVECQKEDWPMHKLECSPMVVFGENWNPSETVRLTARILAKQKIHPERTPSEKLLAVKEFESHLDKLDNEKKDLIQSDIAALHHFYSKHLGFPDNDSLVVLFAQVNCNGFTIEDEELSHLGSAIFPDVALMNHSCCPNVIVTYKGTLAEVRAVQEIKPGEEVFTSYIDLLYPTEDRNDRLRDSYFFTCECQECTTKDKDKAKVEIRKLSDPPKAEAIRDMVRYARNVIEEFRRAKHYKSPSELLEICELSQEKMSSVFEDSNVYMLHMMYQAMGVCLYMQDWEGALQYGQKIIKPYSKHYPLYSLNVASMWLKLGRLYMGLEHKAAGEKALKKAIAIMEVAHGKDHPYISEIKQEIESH

## C=CC(=O)Nc1ccc(C)c(-c2cc(C(=O)NCc3c(C)cc(C)[nH]c3=O)c(C)c(N(CC)C3CCOCC3)c2)c1
[1]
  inhibition: Active
[2]
  inhibition: inactive
[3]
  inhibition: inactive
[4]
  inhibition: inactive
[5]
  inhibition: inactive
[6]
  inhibition: inactive
ES-2
  IC50: 36.4 µM
SK-OV-3
  IC50: 56.4 µM
HEY
  IC50: 35.5 µM
NCI-H1703
  IC50: 26.3 µM
A549
  IC50: 28.7 µM
BT-549
  IC50: 18.9 µM
A2780 [7]
  Activity: Tde
A2780 [8]
  inhibition: Dose-Dependent Effect
PA-1 [9]
  inhibition: Dose-Dependent Effect
A2780 [10]
  inhibition: Dose-Dependent Effect
PA-1 [11]
  Activity: 0.94%
PA-1 [12]
  Activity: 3.36%
PA-1 [13]
  Activity: 0.34%
PA-1 [14]
  Activity: 14.41%
PA-1 [15]
  Activity: 2.21%
PA-1 [16]
  viability at 5 µM: 83.2%
PA-1 [17]
  viability at 20 µM: 50.5%
[18]
  inhibition: Dose-Dependent Effect
[19]
  Tmax: 4.8 min
[20]
  t1/2: 36.6 min
[21]
  Vdss: 0.20228 L/kg
[22]
  MRT(t): 15.6 min
[23]
  fraction unbound at 5 h, 2 µM: 0.0022
PA-1 [24]
  inhibition in vivo at 150 mg/kg: 78.2%
[25]
  Activity: Non-Toxic
[26]
  Activity: Non-Toxic
[27]
  Activity: Non-Toxic
[28]
  Activity: Non-Toxic
[29]
  inhibition: Active
